Results on 82 compounds are retold here after US20100305124A1, “Acylated Aminopyridine and Aminopyridazine Insecticides” (BAYER CROPSCIENCE AG, priority 2009, published 2010).

The first assay relates to green peach aphid (Myzus persicae). The experiment in a line: Myzus test (MYZUPE), sprayed aubergine plants. It is filed as in vivo. The settings on record: application rate of 100 ppm, spray on aubergine plants, read-out: effect in % (aphids killed). The procedure:
Solvent: 3 parts by weight of dimethylformamide Emulsifier: 1 part by weight of polyoxyethylenealkyl phenyl ether
An appropriate preparation of active ingredient is prepared by mixing 1 part by weight of active ingredient with the stated amount of solvent and emulsifier and diluting the concentrate with water to the desired concentration.
Aubergine plants (Solanum melongena) infested by all stages of the green peach aphid (Myzus persicae) are sprayed with a preparation of active ingredient at the desired concentration.
After the desired time, the effect in % is determined; here, 100% means that all of the aphids have been killed. Conversely, 0% means that no aphids have been killed.
Turning to `Cc1c(C(=O)Nc2cccnc2)cnn1-c1ncccc1Cl` [I-1], the pest or weed control at 100 ppm is no less than 80%.
For the compound `Cc1cncc(C(=O)Nc2cccnc2)c1` [I-10], the pest or weed control at 100 ppm is no less than 80%.
Take `CCSc1ccc(C(=O)N(CC)c2cccnc2)cc1` [I-65]: the pest or weed control at 100 ppm is no less than 80%.
For `CN(C(=O)c1ccc(Oc2ccc(OC(F)(F)F)cc2)nc1)c1cccnc1` [I-95], the pest or weed control at 100 ppm was no less than 80%.

Still in this assay, the particulars now being: application rate of 500 ppm, spray on aubergine plants, read-out: effect in % (aphids killed).
Regarding `O=C(Nc1cccnc1)c1ccc(Cn2nc(C(F)(F)F)nc2C(F)(F)F)cc1` [I-5], the pest or weed control at 500 ppm was no less than 80%.
For `O=C(Nc1cccnc1)c1ccc(Cn2nc(C(F)(F)F)nc2C(F)(F)F)nc1` [I-6], the pest or weed control at 500 ppm was no less than 80%.
For `O=C(Nc1cccnc1)c1ccc(Cn2cnc(C(F)(F)F)n2)cc1` [I-8], the pest or weed control at 500 ppm was no less than 80%.
Take `O=C(Nc1cccnc1)c1ccc(Cn2nc(C(F)(F)F)cc2C(F)(F)F)nc1` [I-9]: the pest or weed control at 500 ppm was no less than 80%.
`CN(C(=O)c1cccc(Cn2cnc(C(F)(F)F)n2)c1)c1cccnc1` [I-12]: the pest or weed control at 500 ppm is no less than 80%.
Consider `CN(C(=O)c1cccc(Cn2nc(C(F)(F)F)cc2C(F)(F)F)c1)c1cccnc1` [I-13], for which the pest or weed control at 500 ppm is no less than 80%.
For the compound `CN(C(=O)c1cccc(COc2ccc(C(F)(F)F)cc2)c1)c1cccnc1` [I-14], the pest or weed control at 500 ppm was no less than 80%.
As for `CN(C(=O)c1cccc(Cn2cncn2)c1)c1cccnc1` [I-15], the pest or weed control at 500 ppm is no less than 80%.
In the case of `CSCc1cccc(C(=O)Nc2cccnc2)c1` [I-16], the pest or weed control at 500 ppm was no less than 80%.
For the compound `O=C(Nc1cccnc1)c1ccc(Cn2cnc(C(F)(F)C(F)(F)F)n2)cc1` [I-17], the pest or weed control at 500 ppm is no less than 80%.
Turning to `O=C(Nc1cccnc1)c1ccc(Cn2nc(C(F)(F)F)nc2C(F)(F)F)c(Cl)c1` [I-18], the pest or weed control at 500 ppm was no less than 80%.
With `O=C(Nc1cccnc1)c1ccc(Cn2cc(Br)c(C(F)(F)F)n2)cc1` [I-20], the pest or weed control at 500 ppm is no less than 80%.
For the compound `CN(C(=O)c1ccc([N+](=O)[O-])cc1)c1cccnc1` [I-21], the pest or weed control at 500 ppm was no less than 80%.
For `CN(C(=O)c1ccc(Cn2cncn2)cc1)c1cccnc1` [I-22], the pest or weed control at 500 ppm is no less than 80%.
Still for that read-out and setting: in the case of `CN(C(=O)c1ccc(Cn2cccn2)cc1)c1cccnc1` [I-23] it was no less than 80%; in that of `CN(C(=O)c1ccc(Cn2cnc(C(F)(F)F)n2)cc1)c1cccnc1` [I-25], no less than 80%.
Take `CN(C(=O)c1ccc(Cn2nc(C(F)(F)F)nc2C(F)(F)F)cc1)c1cccnc1` [I-26]: the pest or weed control at 500 ppm was no less than 80%.
As to `CN(C(=O)c1ccc(Cn2ccc(C(F)(F)F)n2)cc1)c1cccnc1` [I-27, N-Methyl-N-(pyridin-3-yl)-4-{[3-(trifluoromethyl)-1H-pyrazol-1-yl]methyl}benzenecarboxamide], the pest or weed control at 500 ppm is no less than 80%.
On to `O=C(Nc1cccnc1)c1ccc(Cn2ccc(C(F)(F)F)n2)nc1` [I-28], for which the pest or weed control at 500 ppm is no less than 80%.
For `CSCc1ccc(C(=O)Nc2cccnc2)cc1` [I-32], the pest or weed control at 500 ppm is no less than 80%.
In the case of `CCSCc1ccc(C(=O)Nc2cccnc2)cc1` [I-33], the pest or weed control at 500 ppm is no less than 80%.
In the case of `CC(C)SCc1ccc(C(=O)Nc2cccnc2)cc1` [I-34], the pest or weed control at 500 ppm was no less than 80%.
`O=C(Nc1cccnc1)c1ccc(CSC(F)F)cc1` [I-35]: the pest or weed control at 500 ppm was no less than 80%.
In the case of `CSc1ccc(C(=O)Nc2cccnc2)cc1` [I-36], the pest or weed control at 500 ppm was no less than 80%.
Regarding `O=C(Nc1cccnc1)c1ccc(SC(F)(F)F)cc1` [I-37], the pest or weed control at 500 ppm is no less than 80%.
On to `Cc1ccc(C(=O)Nc2cccnc2)cn1` [I-38], for which the pest or weed control at 500 ppm is no less than 80%.
Consider `CCCSCc1ccc(C(=O)Nc2cccnc2)cc1` [I-39], for which the pest or weed control at 500 ppm was no less than 80%.
On the same count and under the same terms, in the case of `CCCCSCc1ccc(C(=O)Nc2cccnc2)cc1` [I-40] it was no less than 80%; in that of `CN(C)C(=O)c1ccc(C(=O)Nc2cccnc2)cc1` [I-41], no less than 80%.
Still for that read-out and setting: the value for `O=C(Nc1cccnc1)c1ccc(C(=O)N2CCCC2)cc1` [I-42] was no less than 80%; that for `Cc1ccc(C(=O)N(C)c2cccnc2)cn1` [I-43] was no less than 80%.
The same measure, in the same setting: in the case of `CN(C(=O)c1ccc(Cn2nc(C(F)(F)F)cc2C(F)(F)F)nc1)c1cccnc1` [I-49] it was no less than 80%.
In the case of `CN(C(=O)c1ccc(Cn2nc(C(F)(F)F)nc2C(F)(F)F)nc1)c1cccnc1` [I-50], the pest or weed control at 500 ppm was no less than 80%.
`CN(C(=O)c1ccc(NC(=O)CC(F)(F)F)cc1)c1cccnc1` [I-51]: the pest or weed control at 500 ppm is no less than 80%.
Consider `CN(C(=O)c1ccc(NC(=O)C(F)(F)F)cc1)c1cccnc1` [I-52], for which the pest or weed control at 500 ppm is no less than 80%.
On to `CSc1ccc(C(=O)N(C)c2cccnc2)cc1` [I-53], for which the pest or weed control at 500 ppm was no less than 80%.
`CN(C(=O)c1ccc(SC(F)(F)F)cc1)c1cccnc1` [I-54]: the pest or weed control at 500 ppm was no less than 80%.
The same measure, in the same setting: the value for `CCSc1ccc(C(=O)Nc2cccnc2)cc1` [I-55] was no less than 80%.
Regarding `CCSc1ccc(C(=O)N(C)c2cccnc2)cc1` [I-56], the pest or weed control at 500 ppm was no less than 80%.
As to `CSCc1cccc(C(=O)N(C)c2cccnc2)c1` [I-57], the pest or weed control at 500 ppm was no less than 80%.
On the same count and under the same terms, in the case of `CCSCc1ccc(C(=O)N(C)c2cccnc2)cc1` [I-58] it was no less than 80%.
On to `CSCc1ccc(C(=O)N(C)c2cccnc2)cc1` [I-59], for which the pest or weed control at 500 ppm is no less than 80%.
Turning to `CCCSCc1ccc(C(=O)N(C)c2cccnc2)cc1` [I-60], the pest or weed control at 500 ppm was no less than 80%.
With `CC(C)SCc1ccc(C(=O)N(C)c2cccnc2)cc1` [I-61], the pest or weed control at 500 ppm is no less than 80%.
Same read-out and setting: the value for `CN(C(=O)c1ccc(CSC(F)F)cc1)c1cccnc1` [I-62] was no less than 80%; that for `CCN(C(=O)c1ccc(SC)cc1)c1cccnc1` [I-63] was no less than 80%; that for `CSCc1ccc(C(=O)N(C)c2cccnc2)cn1` [I-64] was no less than 80%.
As for `CSc1ccc(C(=O)N(C)c2cccnc2)cc1F` [I-66], the pest or weed control at 500 ppm is no less than 80%.
The same measure, in the same setting: in the case of `CCN(C(=O)c1ccc(SC)c(F)c1)c1cccnc1` [I-67] it was no less than 80%.
Turning to `CCCSc1ccc(C(=O)Nc2cccnc2)cc1` [I-68], the pest or weed control at 500 ppm is no less than 80%.
Consider `CSc1cccc(C(=O)N(C)c2cccnc2)c1` [I-69], for which the pest or weed control at 500 ppm was no less than 80%.
`Cc1cc(C)nc(SCc2ccc(C(=O)N(C)c3cccnc3)cc2)n1` [I-70]: the pest or weed control at 500 ppm was no less than 80%.
Take `CCN(C)C(=O)c1cccc(C(=O)Nc2cccnc2)c1` [I-71]: the pest or weed control at 500 ppm was no less than 80%.
Same read-out and setting: the value for `CCN(C)C(=O)c1cccc(C(=O)N(C)c2cccnc2)c1` [I-74] was no less than 80%.
Still for that read-out and setting: in the case of `CC(C)NC(=O)c1cccc(C(=O)N(C)c2cccnc2)c1` [I-75] it was no less than 80%; in that of `CCN(C)C(=O)c1cc(C(=O)Nc2cccnc2)ccc1OC` [I-76], no less than 80%; in that of `CCN(C)C(=O)c1cc(C(=O)N(C)c2cccnc2)ccc1OC` [I-77], no less than 80%.
Still for that read-out and setting: in the case of `COc1ccc(C(=O)Nc2cccnc2)cc1C(=O)NC(C)C` [I-78] it was no less than 80%.
As to `COc1ccc(C(=O)N(C)c2cccnc2)cc1C(=O)NC(C)C` [I-79], the pest or weed control at 500 ppm is no less than 80%.
With `Cc1ccc(Oc2ccc(C(=O)N(C)c3cccnc3)cn2)cn1` [I-80], the pest or weed control at 500 ppm was no less than 80%.
Same read-out and setting: in the case of `COc1ccc(Oc2ccc(C(=O)Nc3cccnc3)cn2)cc1` [I-81] it was no less than 80%; in that of `O=C(Nc1cccnc1)c1ccc(Oc2ccccc2Cl)nc1` [I-82], no less than 80%; in that of `O=C(Nc1cccnc1)c1ccc(Oc2cccc(Cl)c2)nc1` [I-83, 6-(3-Chlorophenoxy)-N-pyridin-3-ylnicotinamide], no less than 80%.
With `O=C(Nc1cccnc1)c1ccc(Oc2ccc(Br)cc2)nc1` [I-84], the pest or weed control at 500 ppm is no less than 80%.
`O=C(Nc1cccnc1)c1ccc(Oc2cccc(C(F)(F)F)c2)nc1` [I-88]: the pest or weed control at 500 ppm is no less than 80%.
Take `COC(=O)c1cncc(Oc2ccc(C(=O)Nc3cccnc3)cn2)c1` [I-89]: the pest or weed control at 500 ppm was no less than 80%.
Consider `CN(C(=O)c1ccc(Oc2ccc(C#N)cc2)nc1)c1cccnc1` [I-90], for which the pest or weed control at 500 ppm is no less than 80%.
`CN(C(=O)c1ccc(Oc2ccc(Cl)cc2)nc1)c1cccnc1` [I-91]: the pest or weed control at 500 ppm is no less than 80%.
Take `COc1ccc(Oc2ccc(C(=O)N(C)c3cccnc3)cn2)cc1` [I-92]: the pest or weed control at 500 ppm is no less than 80%.
The same measure, in the same setting: in the case of `CN(C(=O)c1ccc(Oc2ccc([N+](=O)[O-])cc2)nc1)c1cccnc1` [I-93] it was no less than 80%; in that of `Cc1ccccc1Oc1ccc(C(=O)N(C)c2cccnc2)cn1` [I-96], no less than 80%; in that of `Cc1cccc(Oc2ccc(C(=O)N(C)c3cccnc3)cn2)c1` [I-97], no less than 80%.
On the same count and under the same terms, the value for `CN(C(=O)c1ccc(Oc2ccccc2Cl)nc1)c1cccnc1` [I-98] was no less than 80%; that for `CN(C(=O)c1ccc(Oc2cccc(Cl)c2)nc1)c1cccnc1` [I-99] was no less than 80%.

The same assay, now with this note: read-out: effect in % (aphids killed).
Take `O=C(Nc1cccnc1)c1ccc(C(F)(F)C(F)(F)C(F)(F)F)cc1` [I-29]: the pest or weed control at 500 ppm is no less than 80%.
For the compound `O=C(Nc1cccnc1)c1ccc(C(F)(F)C(F)(F)C(F)(F)F)nc1` [I-30], the pest or weed control at 500 ppm was no less than 80%.
With `CN(C(=O)c1ccc(C(F)(F)C(F)(F)C(F)(F)F)cc1)c1cccnc1` [I-47], the pest or weed control at 500 ppm is no less than 80%.
On to `CN(C(=O)c1ccc(C(F)(F)C(F)(F)C(F)(F)F)nc1)c1cccnc1` [I-48], for which the pest or weed control at 500 ppm is no less than 80%.
